Test results: patent publication EP2910557A1, “Enantiopure tetrasubstituted pyrrolidines as scaffolds for proteasome inhibitors and medicinal applications thereof” (Ikerchem, S.L., priority 2014, dated 2015)

Columns and labels:
[1] = target: T1, Human erythrocyte 20S proteasome (Homo sapiens, UniProt P28074); experiment: In vitro enzymatic assay of proteasome inhibitory activity (Suc-Leu-Leu-Val-Tyr-AMC substrate); type: biochemical; conditions: for inhibition at 0.05 µM: Concentration 50 nM; for IC50: human erythrocyte 20S proteasome, 10 µM Suc-Leu-Leu-Val-Tyr-AMC, 37°C
T1 construct: Enzyme: Human erythrocyte 20S proteasome; from tissue; host or cells: human erythrocytes
Procedure: Example 20: In vitro enzymatic assay of proteasome inhibitory activity.
Substrate: Suc-Leu-Leu-Val-Tyr-AMC
Assay buffer: 250 mM HEPES, pH 7.5, 0.5 mM EDTA, 0.03% SDS, 0.05% Igepal CA-630.
Enzyme: Human erythrocyte 20S proteasome
In vitro proteasome inhibitory activity of the compounds of the invention is evaluated by spectrofluorimetric quantitation of AMC. Stock solutions of compounds of the invention are prepared in dimethyl sulphoxide (DMSO). Test compound and/or vehicle is preincubated with […] enzyme (human erythrocyte 20S proteasome) in modified HEPES buffer pH 7.5 and 1% final concentration of DMSO for 15 minutes at 37°C. The reaction is initiated by addition of 10 µM Suc-Leu-Leu-Val-Tyr-AMC for another 30 minutes incubation period at 37°C. Determination of the release of AMC is read spectrophotometrically (excitation, 380 nm; emission, 460 nm). IC50 values are determined by a non-linear, least squares regression analysis using MathlQTM (ID Business Solutions Ltd., UK).

HCT-116 = experiment: Cancer cell growth inhibition, 72 h treatment; type: cell-based; conditions: Homo sapiens, Colon cancer HCT-116, Alamar Blue
Procedure: (§1) Cell culture-based assays were used to evaluate the ability of compounds of the invention to inhibit cancer cell growth.
(§2) Cells were obtained from the American Type Culture Collection (ATCC) and the European Collection of Cell Cultures. Cells were thawed in their appropriate media plus supplements (see table below). Cells were passaged at confluence by washing once in HBSS cation-free followed by a 3 minutes incubation with trypsin ([0.5 µg/ml]/EDTA [0.2 µg/ml]) (Gibco-BRL, 15400054) solution in HBSS at 37°C (except non-adherent cell lines - hematologic), and transferred to their appropriate media plus supplements. Prior to seeding at defined cell concentration, cells were recovered in medium, centrifuged, taken up in medium and counted.
(§3) All treatments were performed in triplicate. Experiments were carried out in 96-well cell culture plates (Cultek) and the cell lines seeded at the density mentioned in the table above and cultured at 37°C with 5% CO2. After 24h, media were supplemented by 100 µl/well of diluted test compound at variable final concentrations and incubated for 72 hours. Then, AlamarBlue® Reagent (Biosource DAL1100) was added to each well and incubated at 37°C for 4 hours. Relative fluorescent intensity that correlates with the number of living cells was read in a Cytofluor plate reader (Millipore) at 535/590 nm (Excitation/emission). After reading the AlamarBlue® signal, the hexosaminidase activitity was measured according to the following protocol: medium was removed and cells were washed once with PBS. 60 µl of substrate solution (p-nitrophenol-N-acetyl-beta-D-glucosaminide 7.5 mM [Sigma N-9376], sodium citrate 0.1 M, pH 5.0, 0.25% Triton X-1 00) was added to each well and incubated at 37°C for 1-2 hours; after this incubation time, a bright yellow colour appears; then, plates could be developed by adding 90 µl of developer solution (Glycine 50 mM, pH 10.4; EDTA 5 mM), and absorbance was recorded at 405 nm.
(§4) Note: In all cases assays were performed in Alamar Blue with the exception of those indicated (* = Hexosaminidase assay)

HeLa = experiment: Cancer cell growth inhibition, 72 h treatment; type: cell-based; conditions: Homo sapiens, Cervical HeLa, Alamar Blue
Procedure: as §1, §2, §3, §4

MDA-MB-231 = experiment: Cancer cell growth inhibition, 72 h treatment; type: cell-based; conditions: Homo sapiens, Breast cancer MDA-MB-231, Alamar Blue
Procedure: as §1, §2, §3, §4

MDA-MB-468 = experiment: Cancer cell growth inhibition, 72 h treatment; type: cell-based; conditions: Homo sapiens, Breast cancer MDA-MB-468, Alamar Blue
Procedure: as §1, §2, §3, §4

OVCAR-3 = experiment: Cancer cell growth inhibition, 72 h treatment; type: cell-based; conditions: Homo sapiens
Procedure: as §1, §2, §3, §4

PC-3 = experiment: Cancer cell growth inhibition, 72 h treatment; type: cell-based; conditions: Homo sapiens, Prostate cancer PC-3, Alamar Blue
Procedure: as §1, §2, §3, §4

SK-BR-3 = experiment: Cancer cell growth inhibition, 72 h treatment; type: cell-based; conditions: Homo sapiens
Procedure: as §1, §2, §3, §4

U-87 MG = experiment: Cancer cell growth inhibition, 72 h treatment; type: cell-based; conditions: Homo sapiens, Brain U-87 MG, Hexosaminidase assay (*)
Procedure: as §1, §2, §3, §4

PANC-1 = experiment: Cancer cell growth inhibition, 72 h treatment; type: cell-based; conditions: Homo sapiens, Pancreatic cancer PANC-1, Alamar Blue
Procedure: as §1, §2, §3, §4

RWP-1 = experiment: Cancer cell growth inhibition, 72 h treatment; type: cell-based
Procedure: as §1, §2, §3, §4

[2] = Ovarian cancer OVCAR-3, Alamar Blue
[3] = Breast cancer SK-BR-3, Alamar Blue
[4] = Ovarian cancer OVCAR-3, Hexosaminidase assay (*)
[5] = Pancreatic cancer RWP-1, Alamar Blue

Structure (SMILES)	inhibition at 0.05 µM [1] [%]	IC50 [1] [nM]	EC50 (HCT-116) [nM]	EC50 (HeLa) [nM]	EC50 (MDA-MB-231) [nM]	EC50 (MDA-MB-468) [nM]	EC50 (OVCAR-3; [2]) [nM]	EC50 (PC-3) [nM]	EC50 (SK-BR-3; [3]) [nM]	EC50 (U-87 MG) [nM]	EC50 (OVCAR-3; [4]) [nM]	EC50 (PANC-1) [nM]	EC50 (RWP-1; [5]) [nM]	EC50 (SK-BR-3; Breast cancer SK-BR-3, Hexosaminidase assay (*)) [nM]	inhibition at 0.5 µM ([1]; Concentration 500 nM) [%]	inhibition at 0.1 µM ([1]; Concentration 100 nM) [%]	EC50 (RWP-1; Pancreatic cancer RWP-1, Hexosaminidase assay (*)) [nM]
CC(C)C[C@H](NC(=O)[C@@H]1N[C@H](c2ccccc2)[C@@H]([N+](=O)[O-])[C@@H]1c1ccc(F)cc1)B(O)O [Example 6, (R)-1-((2R,3R,4S,5R)-3-(4-fluorophenyl)-4-nitro-5-phenylpyrrolidine-2-carboxamido)-3-methylbutylboronic acid]	70	17	2200	54000	11000	2200	–	7100	–	12000	2200	14000	4400	6000	–	–	–
CC(C)C[C@H](NC(=O)[C@@H]1N[C@H](c2ccccc2)[C@@H]([N+](=O)[O-])[C@@H]1c1cccs1)B(O)O [Example 10, (R)-3-methyl-1-((2R,3R,4S,5R)-4-nitro-5-phenyl-3-(thiophen-2-yl)pyrrolidine-2-carboxamido)butylboronic acid]	79	12	640	13000	2800	320	–	1200	440	500	860	3000	1100	–	–	–	–
CC(C)C[C@H](NC(=O)[C@H]1N[C@@H](c2ccccc2)[C@@H]([N+](=O)[O-])[C@@H]1c1ccccc1)B(O)O [Example 4, (R)-3-methyl-1-((2S,3R,4S,5S)-4-nitro-3,5-diphenylpyrrolidine-2-carboxamido)butylboronic acid]	51	46	1300	8300	2100	790	890	2300	760	4200	–	–	3600	–	–	–	–
CC(C)C[C@H](NC(=O)[C@@H]1N[C@H](c2ccccc2)[C@@H]([N+](=O)[O-])[C@@H]1c1ccccc1)B(O)O [Example 1, (R)-3-methyl-1-((2R,3R,4S,5R)-4-nitro-3,5-diphenylpyrrolidine-2-carboxamido)butylboronic acid]	–	39	1900	28000	5100	4100	740	1500	1200	12000	–	–	–	–	–	73	24000

Next, values leading:

inhibition at 0.05 µM [1] [%]	IC50 [1] [nM]	EC50 (HCT-116) [nM]	EC50 (HeLa) [nM]	EC50 (MDA-MB-231) [nM]	EC50 (MDA-MB-468) [nM]	EC50 (OVCAR-3; [2]) [nM]	EC50 (PC-3) [nM]	EC50 (SK-BR-3; [3]) [nM]	EC50 (U-87 MG) [nM]	EC50 (OVCAR-3; [4]) [nM]	EC50 (PANC-1) [nM]	EC50 (RWP-1; [5]) [nM]	EC50 (SK-BR-3; Breast cancer SK-BR-3, Hexosaminidase assay (*)) [nM]	inhibition at 0.5 µM ([1]; Concentration 500 nM) [%]	inhibition at 0.1 µM ([1]; Concentration 100 nM) [%]	EC50 (RWP-1; Pancreatic cancer RWP-1, Hexosaminidase assay (*)) [nM]	Structure (SMILES)
50	46	440	11000	3200	1000	330	300	570	2000	–	–	–	–	–	–	–	CC(C)C[C@H](NC(=O)[C@@H]1N[C@H](c2ccc3ccccc3c2)[C@@H]([N+](=O)[O-])[C@@H]1c1ccccc1)B(O)O [Example 12, (R)-3-methyl-1-((2R,3R,4S,5R)-5-(naphthalen-2-yl)-4-nitro-3-phenylpyrrolidine-2-carboxamido)butylboronic acid]
81	7.55	280	3100	1100	120	–	680	110	890	280	580	420	–	–	–	–	CC(C)C[C@H](NC(=O)[C@@H]1N[C@H](c2ccccc2)[C@@H]([N+](=O)[O-])[C@@H]1c1ccco1)B(O)O [Example 11, (R)-1-((2R,3R,4S,5R)-3-(furan-2-yl)-4-nitro-5-phenylpyrrolidine-2-carboxamido)-3-methylbutylboronic acid]
–	–	1800	52000	18000	18000	6900	26000	6200	25000	–	–	–	–	25	–	–	CC(C)C[C@H](NC(=O)[C@@H]1CCCN1)B(O)O [MG-319, {(R)-3-methyl-1-[(S)-pyrrolidine-2-carboxamido]butyl}boronic acid, reference compound]
